# Laboratory results: patent US6531610B1 (Abbott Laboratories, priority 1989, dated 2003)
# Read-outs that look alike come from different tables or passages of the source.
# Legend:
# in vitro = assay type: cell-based; settings: human
# Excerpt: The anti-HIV activity of the compounds of the invention can be determined in MT4 cells according to the procedure of Kempf, et. al. (Antimicrob. Agents Chemother. 1991, 35, 2209).
# HIV-13B in MT4 cells = assay: Antiviral activity: inhibition of the cytopathic effect of HIV in MT4 cells; assay type: cell-based, HIV-1
# HIV-1 protease = HIV-1 protease (Human immunodeficiency virus type 1 group M subtype B, UniProt P04585); assay: Fluorogenic assay for screening inhibitors of HIV protease; assay type: biochemical; settings: Inhibitor Concentration 0.5 nanomolar, fluorogenic substrate, pH 4.5, read-out: Percent Inhibition
# Protocol: The inhibitory potency of the compounds of the invention can be determined by the following method.
# A compound of the invention is dissolved in DMSO and a small aliquot further diluted with DMSO to 100 times the final concentration desired for testing. The reaction is carried out in a 6×50 mm tube in a total volume of 300 microliters. The final concentrations of the components in the reaction buffer are: 125 mM sodium acetate, 1 M sodium chloride, 5 mM dithiothreitol, 0.5 mg/ml bovine serum albumin, 1.3 μM fluorogenic substrate, 2% (v/v) dimethylsulfoxide, pH 4.5. After addition of inhibitor, the reaction mixture is placed in the fluorometer cell holder and incubated at […] for several minutes. The reaction is initiated by the addition of a small aliquot of cold HIV protease. The fluorescence intensity (excitation 340 nm, emission 490 nm) is recorded as a function of time. The reaction rate is determined for the first six to eight minutes. The observed rate is directly proportional to the moles of substrate cleaved per unit time. The percent inhibition is 100×(1-(rate in presence of inhibitor)/(rate in absence of inhibitor)).
# Fluorogenic substrate: Dabcyl-[…]EDANS wherein DABCYL=4-(4-dimethylamino-phenyl)azobenzoic acid and EDANS=5-((2-aminoethyl)amino)-naphthalene-1-sulfonic acid.
# [1] = Human immunodeficiency virus 1, MT4, read-out: IC50
Compound,CC50 (in vitro),IC50 (HIV-13B in MT4 cells; [1]),inhibition at 0.0005 µM (HIV-1 protease),further results
"CC(C)[C@H](NC(=O)N(C)Cc1csc(N2CCCC2)n1)C(=O)N[C@@H](Cc1ccccc1)C[C@H](O)[C@H](Cc1ccccc1)NC(=O)OCc1ccno1 [Example 49, (2S,3S,5S)-5-(N-(N-((N-Methyl-N-((2-(1-pyrrolidinyl)-4-thiazolyl)methyl)amino)carbonyl)valinyl)amino)-2-(N-((5-isoxazolyl)methoxycarbonyl)amino)-1,6-diphenyl-3-hydroxyhexane]",38000 nM,81 to 130 nM,,
"CC(C)Cc1nc(CN(C)C(=O)N[C@H](C(=O)N[C@@H](Cc2ccccc2)C[C@H](O)[C@H](Cc2ccccc2)NC(=O)OCc2cncs2)C(C)C)cs1 [Example 59, (2S,3S,5S)-5-(N-(N-((N-Methyl-N-((2-isobutyl-4-thiazolyl)methyl)amino)carbonyl)valinyl)amino)-2-(N-((5-thiazolyl)methoxycarbonyl)amino)-1,6-diphenyl-3-hydroxyhexane]",18000 nM,110 to 130 nM,39%,
"CC(C)[C@H](NC(=O)N(C)Cc1csc(C2CCCC2)n1)C(=O)N[C@@H](Cc1ccccc1)C[C@H](O)[C@H](Cc1ccccc1)NC(=O)OCc1cncs1 [Example 58, (2S,3S,5S)-5-(N-(N-((N-Methyl-N-((2-cyclopentyl-4-thiazolyl)methyl)amino)carbonyl)valinyl)amino)-2-(N-((5-thiazolyl)methoxycarbonyl)amino)-1,6-diphenyl-3-hydroxyhexane]",18000 nM,30 to 46 nM,49%,
"CC(C)c1nc(CCOC(=O)N[C@H](C(=O)N[C@@H](Cc2ccccc2)[C@@H](O)C[C@H](Cc2ccccc2)NC(=O)OCc2cncs2)C(C)C)cs1 [Example 48, (2S,3S,5S)-2-(N-(N-((2-(2-Isopropyl-4-thiazolyl)ethoxy)carbonyl)valinyl)amino)-5-(N-((5-thiazolyl)methoxycarbonyl)amino)-1,6-diphenyl-3-hydroxyhexane]",> 100000 nM,90 to 110 nM,,
"CC(C)c1nc(COC(=O)N[C@H](C(=O)N[C@@H](Cc2ccccc2)[C@@H](O)C[C@@H](Cc2cncs2)NC(=O)OCc2cncs2)C(C)C)cs1 [Example 65, (2S,3S,5S)-2-(N-(N-((2-Isopropyl-4-thiazolyl)methoxycarbonyl)valinyl)amino)-1-phenyl-5-(N-((5-thiazolyl)methoxycarbonyl)amino)-6-(5-thiazolyl)-3-hydroxyhexane]",> 100000 nM,120 to 200 nM,70%,
CCN(Cc1csc(C2CCCC2)n1)C(=O)N[C@@H](C)C(=O)N[C@@H](Cc1ccccc1)C[C@H](O)[C@H](Cc1ccccc1)NC(=O)OCc1cncs1 [Example 60],,,44%,"CC50 (in vitro; concentration at which 50% of the cells remain viable, MT4 cells, read-out: LC50 (the source's name)): 17000 nM; IC50 (HIV-13B in MT4 cells; Human immunodeficiency virus 1, MT4): 340 to 510 nM"
"CC(C)[C@H](NC(=O)OCc1csc(N2CCCC2)n1)C(=O)N[C@@H](Cc1ccccc1)[C@@H](O)C[C@H](Cc1ccccc1)NC(=O)OCc1cncs1 [Example 14, (2S,3S,5S)-2-(N-(N-((2-(1-Pyrrolidinyl)-4-thiazolyl)-methoxycarbonyl)valinyl)amino)-5-(N-((5-thiazolyl)-methoxycarbonyl)amino)-1,6-diphenyl-3-hydroxyhexane]",> 100000 nM,140 to 220 nM,,
"CC(C)c1nc(CN(C)C(=O)N[C@H](C(=O)N[C@@H](Cc2ccccc2)C[C@H](O)[C@H](Cc2ccccc2)NC(=O)OCc2cnc(C(C)C)s2)C(C)C)cs1 [Example 45, (2S,3S,5S)-5-(N-(N-((N-Methyl-N-((2-isopropyl-4-thiazolyl)methyl)amino)carbonyl)valinyl)amino)-2-(N-(((2-isopropyl)-5-thiazolyl)methoxycarbonyl)amino)-1,6-diphenyl-3-hydroxyhexane]",,36 to 40 nM,50%,
"CC(C)c1nc(COC(=O)N[C@H](C(=O)N[C@H](Cc2cncs2)C[C@H](O)[C@H](Cc2ccccc2)NC(=O)OCc2cncs2)C(C)C)cs1 [Example 64, (2S,3S,5S)-5-(N-(N-((2-Isopropyl-4-thiazolyl)methoxycarbonyl)valinyl)amino)-1-phenyl-2-(N-((5-thiazolyl)methoxycarbonyl)amino)-6-(5-thiazolyl)-3-hydroxyhexane]",> 100000 nM,100 to 130 nM,,
"CC(C)[C@H](NC(=O)N(C)Cc1csc(N2CCCC2)n1)C(=O)N[C@@H](Cc1ccccc1)C[C@H](O)[C@H](Cc1ccccc1)NC(=O)OCc1cncs1 [Example 46, (2S,3S,5S)-5-(N-(N-((N-Methyl-N-((2-(1-pyrrolidinyl)-4-thiazolyl)methyl)amino)carbonyl)valinyl)amino)-2-(N-((5-thiazolyl)methoxycarbonyl)amino)-1,6-diphenyl-3-hydroxyhexane]",,100 to 170 nM,46%,
"CC(C)c1nc(CN(NC(=O)OC(C)(C)C)C(=O)N[C@H](C(=O)N[C@@H](Cc2ccccc2)C[C@H](O)[C@H](Cc2ccccc2)NC(=O)OCc2cncs2)C(C)C)cs1 [Example 62, (2S,3S,5S)-5-(N-(N-((N-(tert-Butyloxycarbonylamino)-N-((2-isopropyl-4-thiazolyl)methyl)amino)carbonyl)valinyl)amino)-2-(N-((5-thiazolyl)methoxycarbonyl)amino)-1,6-diphenyl-3-hydroxyhexane]",17000 nM,690 to 1000 nM,54%,
"CC(C)[C@H](NC(=O)OCc1csc(N2CCCC2)n1)C(=O)N[C@@H](Cc1ccccc1)C[C@H](O)[C@H](Cc1ccccc1)NC(=O)OCc1cncs1 [Example 13, (2S,3S,5S)-5-(N-(N-((2-(1-Pyrrolidinyl)-4-thiazolyl)methoxycarbonyl)valinyl)amino)-2-(N-((5-thiazolyl)methoxycarbonyl)amino)-1,6-diphenyl-3-hydroxyhexane]",56000 nM,56 to 88 nM,46%,
"CC(C)c1nc(CN(C)C(=O)N[C@H](C(=O)N[C@H](Cc2cncs2)C[C@H](O)[C@H](Cc2ccccc2)NC(=O)OCc2cncs2)C(C)C)cs1 [Example 8, (2S,3S,5S)-5-(N-(N-((N-Methyl-N-((2-isopropyl-4-thiazolyl)methyl)amino)carbonyl)valinyl)amino)-1-phenyl-2-(N-((5-thiazolyl)methoxycarbonyl)amino)-6-(5-thiazolyl)-3-hydroxyhexane]",97000 nM,57 to 95 nM,,
"CCc1nc(CN(C)C(=O)N[C@H](C(=O)N[C@@H](Cc2ccccc2)C[C@H](O)[C@H](Cc2ccccc2)NC(=O)OCc2cncs2)C(C)C)co1 [Example 41, (2S,3S,5S)-5-(N-(N-((N-Methyl-N-((2-ethyl-4-oxazolyl)methyl)amino)carbonyl)valinyl)amino)-2-(N-((5-thiazolyl)methoxycarbonyl)amino)-1,6-diphenyl-3-hydroxyhexane]",,15 to 20 nM,,
"CC(C)[C@H](NC(=O)OCc1csc(N(C)C)n1)C(=O)N[C@@H](Cc1ccccc1)[C@@H](O)C[C@H](Cc1ccccc1)NC(=O)OCc1cncs1 [Example 10, (2S,3S,5S)-2-(N-(N-((2-(N,N-Dimethylamino)-4-thiazolyl)methoxycarbonyl)valinyl)amino)-5-(N-((5-thiazolyl)methoxycarbonyl)amino)-1,6-diphenyl-3-hydroxyhexane]",,54 to 71 nM,,
CC(C)c1nc(CN(C)C(=O)N[C@H](C(=O)N[C@@H](Cc2ccccc2)C[C@H](O)[C@H](Cc2ccccc2)NC(=O)OCc2cnco2)C(C)C)cs1 [Example 20],,,,"IC50 (HIV-13B in MT4 cells; concentration giving 50% inhibition of the cytopathic effect of HIV, HIV-13B in MT4 cells, read-out: IC50): 11 to 14 nM"
"CC(C)[C@H](NC(=O)OCc1csc(N(C)C)n1)C(=O)N[C@@H](Cc1ccccc1)C[C@H](O)[C@H](Cc1ccccc1)NC(=O)OCc1cncs1 [Example 9, (2S,3S,5S)-5-(N-(N-((2-(N,N-Dimethylamino)-4-thiazolyl)methoxycarbonyl)valinyl)amino)-2-(N-((5-thiazolyl)methoxycarbonyl)amino)-1,6-diphenyl-3-hydroxyhexane]",62000 nM,80 to 100 nM,,
"Cc1ncc(COC(=O)N[C@@H](Cc2ccccc2)C[C@H](O)[C@H](Cc2ccccc2)NC(=O)[C@@H](NC(=O)N(C)Cc2csc(C(C)C)n2)C(C)C)s1 [Example 39, (2S,3S,5S)-2-(N-(N-((N-Methyl-N-((2-isopropyl-4-thiazolyl)methyl)amino)carbonyl)valinyl)amino)-5-(N-((2-methyl-5-thiazolyl)methoxycarbonyl)amino)-1,6-diphenyl-3-hydroxyhexane]",,73 to 77 nM,,
"CC(C)c1nc(CN(C)C(=O)N[C@@H](C)C(=O)N[C@@H](Cc2ccccc2)C[C@H](O)[C@H](Cc2ccccc2)NC(=O)OCc2ccno2)co1 [Example 57, (2S,3S,5S)-5-(N-(N-((N-Methyl-N-((2-isopropyl-4-oxazolyl)methyl)amino)carbonyl)-L-alaninyl)amino)-2-(N-((5-isoxazolyl)methoxycarbonyl)amino)-1,6-diphenyl-3-hydroxyhexane]",,35 to 48 nM,,
